# Source: EP4534542A1, “THIOSUGAR BASED ISOTHIOCYANATES AND USES THEREOF” (Universidad de Sevilla, priority 2023, dated 2025)
# Read-outs that look alike come from different tables or passages of the source.
# Legend:
# HaCaT cells = experiment: Cell viability assay (resazurin), cytotoxicity in non-malignant cells; format: cell-based, human; details: read-out: IC50 HaCaT (Non-malignant keratinocyte)
# Protocol: (§1) Cells were grown in Dulbecco's Modified Eagle's Medium (DMEM) supplemented with 100 U/mL penicillin, 100 µg/mL streptomycin and 10% fetal bovine serum. HL60 cell line (acute myeloid leukaemia, AML) was obtained from ATCC. It was cultured in IMDM medium supplemented with 100 U/mL penicillin, 100 µg/mL streptomycin and 10% fetal bovine serum. U937 (AML) and Jurkat cells (ALL) were obtained from DMSZ, Braunschweig, Germany, and ATCC, respectively. They were cultivated in RPMI medium, supplemented with 100 U/mL penicillin, 100 µg/mL streptomycin and 10% fetal bovine serum. […] All cell lines were cultured at 37 ° C with 5% CO2 in a humidified incubator. Cell culture reagents were purchased from Biowest. Exponentially growing cells (3000-6000 cells per well) were seeded in 96-well plates. After 24 hours, cells were treated with the drugs for 72 hours. The cell viability was then estimated with the resazurin assay, a colorimetric technique based on the capability of viable cells to reduce the blue reagent resazurin to the pink-soluble product resorufin. The amount of resorufin produced is proportional to the number of viable cells. Briefly, cells were washed once with phosphate buffered saline (PBS) and 150 µL resazurin (20 µg/mL in medium) was added to each well. The plates were incubated for 3 hours at 37 °C, 5% CO2, and finally optical densities were measured at 540 and 620 nm with a multiwell plate spectrophotometer reader (Multiskan EX Labsystems). Cell viability was calculated as a percentage compared to non-treated cells. The results were expressed as the means ± standard error of the mean (SEM). All data are from at least three independent experiments.
# [1] = tested on: A549 (human lung adenocarcinoma cells); experiment: Cell viability assay (resazurin), cytotoxic activity against solid tumours; format: cell-based; details: for IC50: read-out: IC50 A549 (Lung adenocarcino ma); for S.I. A549 (Selectivity Index): IC50 HaCaT divided by IC50 A549, mean of independent experiments
# Protocol: as §1, with “The plates were incubated for 3 hours at 37 °C, 5% CO2, and finally optical densities were measured at 540 and 620 nm with a multiwell plate spectrophotometer reader (Multiskan EX Labsystems).” left out, “experiments. The selectivity index (S.I.) values were calculated over each cancer cell line as the mean of the IC50 value in the non-malignant cell line (HaCaT) by the IC50 in the respective cancer cell line obtained in each independent experiment.” for “experiments.”
# [2] = tested on: MeWo (human melanoma cells); experiment: as above; format: cell-based; details: for IC50: read-out: IC50 MeWo (Melanoma; BRAF WT); for S.I. MeWo (Selectivity Index): IC50 HaCaT divided by IC50 MeWo, mean of independent experiments
# Protocol: as §1, with “The plates were incubated for 3 hours at 37 °C, 5% CO2, and finally optical densities were measured at 540 and 620 nm with a multiwell plate spectrophotometer reader (Multiskan EX Labsystems).” left out, “experiments. The selectivity index (S.I.) values were calculated over each cancer cell line as the mean of the IC50 value in the non-malignant cell line (HaCaT) by the IC50 in the respective cancer cell line obtained in each independent experiment.” for “experiments.”
# [3] = tested on: T24 (human bladder cancer cells); experiment: as above; format: cell-based; details: for IC50: read-out: IC50 T24 (Bladder cancer); for S.I. T24 (Selectivity Index): IC50 HaCaT divided by IC50 T24, mean of independent experiments
# Protocol: as §1, with “The plates were incubated for 3 hours at 37 °C, 5% CO2, and finally optical densities were measured at 540 and 620 nm with a multiwell plate spectrophotometer reader (Multiskan EX Labsystems).” left out, “experiments. The selectivity index (S.I.) values were calculated over each cancer cell line as the mean of the IC50 value in the non-malignant cell line (HaCaT) by the IC50 in the respective cancer cell line obtained in each independent experiment.” for “experiments.”
# [4] = tested on: HL60 (Acute myeloid leukaemia); experiment: Antileukemic activity, cell viability (CCK-8 Cell Counting Kit); format: cell-based; details: Homo sapiens, HL-60; 18 h incubation, compounds 0 - 100 µM; read-out: IC50 Cancer cells HL60 (Acute myeloid leukaemia)
# Protocol: (§2) HaCaT cells (human keratinocytes, reference control), A549 (human lung adenocarcinoma cells), MeWo (human melanoma cells) and T24 (human bladder cancer cells) were purchased from Cell Lines Service (CLS). Cells were grown in Dulbecco's Modified Eagle's Medium (DMEM) supplemented with 100 U/mL penicillin, 100 µg/mL streptomycin and 10% fetal bovine serum. HL60 cell line (acute myeloid leukaemia, AML) was obtained from ATCC. It was cultured in IMDM medium supplemented with 100 U/mL penicillin, 100 µg/mL streptomycin and 10% fetal bovine serum. U937 (AML) and Jurkat cells (ALL) were obtained from DMSZ, Braunschweig, Germany, and ATCC, respectively. They were cultivated in RPMI medium, supplemented with 100 U/mL penicillin, 100 µg/mL streptomycin and 10% fetal bovine serum. OPM-2 cell line (MM), was obtained from DMSZ, Braunschweig, Germany and cultured in RPMI medium supplemented with 100 U/mL penicillin, 100 µg/mL streptomycin, 10% fetal bovine serum and 1X GlutaMAXTM. All cell lines were cultured at 37 ° C with 5% CO2 in a humidified incubator. Cell culture reagents were purchased from Biowest.
# (§3) For the leukemic cell lines, the CCK-8 Cell Counting Kit (Dojindo Molecular Technologies) was used according to manufacturers instructions. Briefly, 50.000 cells were seeded in each well of a 96 well plate, and they were treated with increased amounts (0 - 100 µM) of each of the compounds, and incubated for 18 h at 37 °C, 5% CO2. After this period, 7 µl of the CCK-8 reagent were added to each well, and cells were further incubated for 2 h at 37 °C, 5% CO2. OD at 450 nm was obtained using a MultiskanTM GO microplate reader (Thermo Fisher Scientific, Waltham, MA, EE.UU). Cell viability in each condition was normalized to the measurement obtained in the non treated samples (100%), and were represented as average ± standard error of the mean (SEM).
# [5] = tested on: Jurkat (Acute lymphoblastic leukaemia); experiment: as above; format: cell-based; details: Homo sapiens, 18 h incubation, compounds 0 - 100 µM, read-out: IC50 Cancer cells Jurkat (Acute lymphoblastic leukaemia)
# Protocol: as §2, §3
# OPM-2 (Multiple myeloma) = experiment: as above; format: cell-based; details: Homo sapiens, 18 h incubation, compounds 0 - 100 µM, read-out: IC50 Cancer cells OPM-2 (Multiple myeloma)
# Protocol: as §2, §3
# [6] = tested on: U937 (Acute myeloid leukaemia); experiment: as above; format: cell-based; details: Homo sapiens, U-937; 18 h incubation, compounds 0 - 100 µM; read-out: IC50 Cancer cells U937 (Acute myeloid leukaemia)
# Protocol: as §2, §3
# [7] = Homo sapiens, HaCaT, 72 h treatment, resazurin assay, mean ± SEM
# [8] = Homo sapiens, A549, 72 h treatment, resazurin assay, mean ± SEM
# [9] = Homo sapiens, MeWo, 72 h treatment, resazurin assay, mean ± SEM
# [10] = Homo sapiens, 72 h treatment, resazurin assay, mean ± SEM
# [11] = 72 h treatment, resazurin assay, mean ± SEM
SMILES,"IC50 (HaCaT cells; Homo sapiens, HaCaT, 72 h)","IC50 ([1]; Homo sapiens, A549, 72 h)",S.I. A549 (Selectivity Index) [1],"IC50 ([2]; Homo sapiens, MeWo, 72 h)",S.I. MeWo (Selectivity Index) [2],"IC50 ([3]; Homo sapiens, 72 h)",S.I. T24 (Selectivity Index) [3],IC50 [4],IC50 [5],IC50 (OPM-2 (Multiple myeloma)),IC50 [6],IC50 (HaCaT cells; [7]),"IC50 [1, 8]","IC50 [2, 9]","IC50 [3, 10]",IC50 (HaCaT cells; [11]),"IC50 [1, 11]","IC50 [2, 11]","IC50 [3, 11]"
"C[S+]([O-])CCCN=C=S (racemic) [rac-5, 1-isothiocyanato-3-(methylsulfinyl)propane, reference compound]",33 ± 5.8 µM,20.7 ± 5.7 µM,1.8±0.3,32.8 ± 5.8 µM,1.0±0.1,12.2 ± 2.9 µM,2.9±0.3,11 µM,13.7 µM,19.4 µM,8.5 µM,–,–,–,–,–,–,–,–
"CC[S@@+]([O-])[C@H]1O[C@H](COC(C)=O)[C@@H](OC(C)=O)[C@H](N=C=S)[C@H]1OC(C)=O [(RS)-17α, Ethyl 2,4,6-tri-O-acetyl-3-isothiocyanato-1,3-dideoxy-1[(R)-sulfinyl]-α-D-glucopyranse]",–,–,> 1.1,–,> 1.1,–,> 1.6,50.3 µM,38.1 µM,–,41.2 µM,> 100 µM,108 ± 25.7 µM,113 ± 39.2 µM,65.6 ± 13.3 µM,–,–,–,–
"CC(=O)OC[C@H]1O[C@H]([S@+]([O-])c2ccccc2)[C@H](OC(C)=O)[C@@H](N=C=S)[C@@H]1OC(C)=O [(RS)-18α, Phenyl 2,4,6-tri-O-acetyl-3-isothiocyanato-1,3-dideoxy-1[(R)-sulfinyl]-α-D-glucopyranose]",–,–,1.1±0.4,–,1.0±0.4,–,1.3±0.5,7.4 µM,46.3 µM,19.6 µM,~47.3 µM,51 ± 17.6 µM,55.7 ± 8.4 µM,55.3 ± 7.6 µM,48.6 ± 8.6 µM,–,–,–,–
"CC(=O)OC[C@H]1O[C@@H]([S@+]([O-])c2ccccc2)[C@H](OC(C)=O)[C@@H](N=C=S)[C@@H]1OC(C)=O [(RS)-18β, Phenyl 2,4,6-tri-O-acetyl-3-isotiocianato-1,3-dideoxy-1[(R)-sulfinyl]-β-D-glucopyranose]",–,–,1.7±0.2,–,1.8±0.2,–,2.2±0.4,–,–,–,–,39.4 ± 8.7 µM,21.9 ± 2.5 µM,21.9 ± 2.9 µM,17.2 ± 1.2 µM,–,–,–,–
"N.N.[Cl][Pt][Cl] [Cisplatin, reference compound]",–,–,–,–,–,–,–,–,–,–,–,–,–,–,–,2.1 ± 0.7 µM,13.5 ± 2.7 µM,2.2 ± 1.1 µM,1.6 ± 0.5 µM
"CSCCCN=C=S [Compound 4, (3-isothiocyanatopropyl)(methyl)sulfane, reference compound]",43.9 ± 3.2 µM,31.1 ± 7.6 µM,–,31.6 ± 5.7 µM,–,14.4 ± 1.1 µM,–,9 µM,8.9 µM,12 µM,–,–,–,–,–,–,–,–,–
"CC(=O)OC[C@H]1O[C@@H](Sc2ccccc2)[C@H](OC(C)=O)[C@@H](N=C=S)[C@@H]1OC(C)=O [Compound 15β, Phenyl 2,4,6-tri-O-acetyl-3-isothiocyanato-1,3-dideoxy-1-thio-β-D-glucopyranoside]",–,–,1.3±0.1,–,1.1±0.0,–,1.2±0.1,–,–,–,–,32.2 ± 10.2 µM,32.2 ± 10.2 µM,30.2 ± 9.5 µM,27.1 ± 8.7 µM,–,–,–,–
"CC(=O)OC[C@H]1O[C@H](S(=O)(=O)c2ccccc2)[C@H](OC(C)=O)[C@@H](N=C=S)[C@@H]1OC(C)=O [Compound 21α, Phenyl 2,4,6-tri-O-acetyl-3-isothiocyanato-1,3-dideoxy-1-sulfonyl-α-D-glucopyranose]",45 ± 8.9 µM,22.9 ± 3.7 µM,1.9±0.2,22.9 ± 5.9 µM,2.0±0.3,18.5 ± 0.6 µM,2.4±0.4,–,–,–,–,–,–,–,–,–,–,–,–
"C[S+]([O-])CCCCN=C=S (centres unmarked) [SFN, sulforaphane, reference compound]",–,–,1.7 ± 0.2,–,1.7±0.4,–,2.6±0.3,–,–,–,–,16.6 ± 2.4 µM,10.6 ± 2.1 µM,12.9 ± 4.2 µM,6.3 ± 0.2 µM,–,–,–,–
